Results taken from patent US20090029992A1, “SUBSTITUTED PYRAZOLE COMPOUNDS” (priority 2007, published 2009).

Experiments:
[1] = test system: HCT116 cells; test: Whole cell cytotoxicity assay, Sulforhodamine B; type: cell-based; details: Homo sapiens, HCT-116, HCT116, 96 hours incubation, SRB; for GI50: read-out: GI50 HCT116 cell growth; for IC50: read-out: IC50 values in this assay (HCT116 cell growth)
Protocol: Human tumor-derived cell lines, HCT116 or MCF7 (ATCC) were plated in a 96 well plate in DMEM containing 10% fetal bovine serum and 2 mM L-glutamine at a density of 500 HCT116 cells or 1,000 MCF7 cells per well and incubated at 37° C., 5% CO2, for 24 hours prior to the addition of experimental compounds. Compounds were added using the dilution series indicated to duplicate plates and the cells were incubated in media plus compound for 96 hours. An additional plate was fixed in 10% TCA at the time of the addition of compound to provide a measurement of the cell population at time zero, the time of drug addition. Following the 96 hour incubation, cells were fixed in situ by gently aspirating off the culture media and then adding 50 ul of ice cold 10% TCA per well and incubation at 4° C. for 60 minutes. The plates were washed with tap water five times and allowed to air dry for 5 minute. 50 ul of a 0.4% (w/v) Sulforhodamine B solution in 1% (v/v) acetic acid was added per well and the cells were incubated for 30 minutes at room temperature. Following staining, plates were washed four times with 1% acetic acid to remove any unbound dye and then allowed to air dry for 5 minutes. The stain was solubilized with 100 ul of 10 mM Tris pH 10.5 per well and placed on an orbital rotator for 5 minutes. The absorbance was read at 570 nm. Percentage growth was calculated using the absorbance readings from the time zero plate (Tz) and the dilution series plate […] which included a column of cells grown in media without compound as a control (C) using the formulas:
[(Ti−Tz)/(C−Tz)]×100 for concentrations for which Ti>/=Tz
[(Ti−Tz)/Tz]×100 for concentrations for which Ti<Tz.
Three dose response parameters were calculated for each experimental agent. Growth inhibition of 50% (GI50) was calculated from [(Ti−Tz)/(C−Tz)]×100=50, which was the drug concentration resulting in a 50% reduction in the net protein increase (as measured by SRB staining) in control cells during the drug incubation. The drug concentration resulting in total growth inhibition (TGI) was calculated from Ti=Tz. The LC50 (concentration of drug resulting in a 50% reduction in the measured protein at the end of the drug treatment as compared to that at the beginning) indicating a net loss of cells following treatment ws calculated from [(Ti−Tz)/Tz]×100=−50. Values are calculated for each of these three parameters if the level of activity was reached; however, if the effect was not reached or was exceeded, the value for that parameter is expressed as greater or less than the maximum or minimum concentration tested.

[2] = target: T1, N-terminal His6-tagged recombinant human KDR, residues 790-end (Homo sapiens, UniProt P35968); test: KDR kinase inhibition assay (33P-ATP filter assay); type: biochemical
T1 construct: recombinant human KDR, residues 790-end; His6 (N); purchased Upstate USA Inc, 706 Forest Street, Charlottesville, Va
Protocol: (§1) Compounds were assayed for KDR kinase inhibitory activity using N-terminal His6-tagged recombinant human KDR, residues 790-end (Upstate USA Inc, 706 Forest Street, Charlottesville, Va.). Serial dilutions of compound were assayed in a final reaction volume of 25 μL by incubating a solution of the above KDR kinase (5-10 mU), 8 mM MOPS (3-(N-morpholino) propanesulfonic acid) pH 7.0, 0.2 mM EDTA (ethylenediamine tetracetic acid), 0.33 mg/mL myelin basic protein (Upstate USA Inc, 706 Forest Street, Charlottesville, Va.), and 10 mM magnesium acetate and [γ-^33P-ATP] (specific activity of about 500 cpm/μmol, concentration as required). The reaction was initiated by the addition of the magnesium acetate and [γ-^33P-ATP] mixture. After incubation for 40 minutes at room temperature, the reaction was stopped by the addition of 5 μL of a 3% phosphoric acid solution. A 10 μL aliquote of the reaction was then spotted onto a P30 filtermat (PerkinElmer, Wellesley, Mass.) and washed three times for five minutes in 75 mM phosphoric acid and once in methanol prior to drying and scintillation counting. Inhibition of KDR activity was determined by comparison to assays that contained no inhibitor.

[3] = target: T2, N-terminal GST-tagged recombinant human Flt3, residues 564-end (Homo sapiens, UniProt P36888); test: Flt3 kinase inhibition assay (33P-ATP filter assay); type: biochemical; details: 40 minutes at room temperature
T2 construct: recombinant human Flt3, residues 564-end; GST (N); purchased Upstate USA Inc, 706 Forest Street, Charlottesville, Va
T2 sequence (P36888 564-993 limits assumed): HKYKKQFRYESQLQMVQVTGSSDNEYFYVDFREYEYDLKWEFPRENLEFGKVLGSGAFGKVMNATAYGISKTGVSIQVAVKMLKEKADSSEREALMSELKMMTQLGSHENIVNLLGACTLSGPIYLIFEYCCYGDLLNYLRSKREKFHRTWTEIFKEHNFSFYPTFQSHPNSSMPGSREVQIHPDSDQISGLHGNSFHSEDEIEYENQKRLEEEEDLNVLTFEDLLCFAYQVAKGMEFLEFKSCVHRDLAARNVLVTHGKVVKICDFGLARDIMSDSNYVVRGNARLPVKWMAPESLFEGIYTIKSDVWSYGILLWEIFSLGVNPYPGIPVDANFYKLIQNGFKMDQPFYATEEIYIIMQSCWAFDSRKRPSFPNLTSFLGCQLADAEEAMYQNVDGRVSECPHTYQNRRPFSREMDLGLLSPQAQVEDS
Protocol: as §1, with “Flt3” for “KDR”, “GST-tagged” for “His6-tagged”, “Flt3,” for “KDR,”, “564-end” for “790-end”, “50 μM amino acid sequence EAIYAAPFAKKK” for “0.33 mg/mL myelin basic protein”

[4] = target: T3, N-terminal His-tagged human Src (Homo sapiens, UniProt P12931); test: Src kinase inhibition assay (33P-ATP filter assay); type: biochemical
T3 construct: His (N); purchased Upstate USA Inc, 706 Forest Street, Charlottesville, Va
Protocol: as §1, with “Src” for “KDR”, “His-tagged” for “His6-tagged recombinant”, “Src” for “KDR, residues 790-end”, “250 μM amino acid sequence KVEKIGEGTYGVVYK” for “0.33 mg/mL myelin basic protein”

[5] = group with IC50 greater than 100 nM

T3 sequence (P12931 whole entry): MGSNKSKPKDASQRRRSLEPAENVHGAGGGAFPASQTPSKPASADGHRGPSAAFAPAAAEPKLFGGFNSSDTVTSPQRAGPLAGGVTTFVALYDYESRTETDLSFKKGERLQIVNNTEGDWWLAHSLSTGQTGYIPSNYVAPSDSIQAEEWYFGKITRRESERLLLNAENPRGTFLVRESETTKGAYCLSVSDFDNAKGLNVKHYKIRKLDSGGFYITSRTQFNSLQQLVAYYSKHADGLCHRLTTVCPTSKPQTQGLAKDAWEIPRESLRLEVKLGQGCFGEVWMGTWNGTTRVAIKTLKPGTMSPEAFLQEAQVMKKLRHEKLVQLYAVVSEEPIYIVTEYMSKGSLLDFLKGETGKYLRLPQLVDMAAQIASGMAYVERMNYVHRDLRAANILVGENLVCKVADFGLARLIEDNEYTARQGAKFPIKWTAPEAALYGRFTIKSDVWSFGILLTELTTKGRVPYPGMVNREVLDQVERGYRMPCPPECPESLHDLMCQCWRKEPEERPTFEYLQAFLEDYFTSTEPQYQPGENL
T1 sequence (P35968 790-1356 limits assumed): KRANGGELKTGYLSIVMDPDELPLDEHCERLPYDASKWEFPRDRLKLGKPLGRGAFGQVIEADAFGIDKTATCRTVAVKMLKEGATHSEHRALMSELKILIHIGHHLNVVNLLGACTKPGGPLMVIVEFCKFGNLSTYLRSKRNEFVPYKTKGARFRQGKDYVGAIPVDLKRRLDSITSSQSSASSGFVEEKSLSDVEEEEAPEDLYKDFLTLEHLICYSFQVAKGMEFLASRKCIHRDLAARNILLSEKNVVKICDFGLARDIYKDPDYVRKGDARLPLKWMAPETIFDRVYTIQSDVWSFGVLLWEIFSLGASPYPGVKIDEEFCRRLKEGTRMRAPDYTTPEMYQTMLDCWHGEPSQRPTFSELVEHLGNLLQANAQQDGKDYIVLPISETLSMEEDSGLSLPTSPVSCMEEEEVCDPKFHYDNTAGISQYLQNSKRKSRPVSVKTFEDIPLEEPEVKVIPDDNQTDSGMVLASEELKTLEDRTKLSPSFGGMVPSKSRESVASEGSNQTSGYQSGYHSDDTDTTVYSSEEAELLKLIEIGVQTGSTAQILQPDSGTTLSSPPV

In the case of `Cc1cc(Nc2cc(N(C)CCN(C)C)nc(-c3cccc4ccccc34)n2)n[nH]1` [Example 141, N^4-(2-(dimethylamino)ethyl)-N^4-methyl-N^6-(5-methyl-1H-pyrazol-3-yl)-2-(naphthalen-1-yl)pyrimidine-4,6-diamine], the GI50 [1] is reported as ≤ 1 µM, the IC50 [2, 5] is reported as ≤ 1 µM and the IC50 [3] is reported as ≤ 0.1 µM. The IC50 [4, 5] was ≤ 1 µM.

In the case of `Cc1cc(Nc2cc(N3CCN(C)CC3)nc(-c3ccc(F)cc3F)n2)n[nH]1` [Example 189, 2-(2,4-difluorophenyl)-N-(5-methyl-1H-pyrazol-3-yl)-6-(4-methylpiperazin-1-yl)pyrimidin-4-amine], the IC50 [1] is reported as 1 to 10 µM, the IC50 [2, 5] is reported as ≤ 1 µM and the IC50 [3] is reported as ≤ 0.1 µM. For the same compound, the IC50 [4, 5] was ≤ 1 µM.

With `CCc1ccccc1-c1nc(Nc2cc(C)[nH]n2)cc(N(C)CCN(C)C)n1` [Example 186, N^4-(2-(dimethylamino)ethyl)-2-(2-ethylphenyl)-N^4-methyl-N^6-(5-methyl-1H-pyrazol-3-yl)pyrimidine-4,6-diamine] the IC50 [1] was 1 to 10 µM, the IC50 [2, 5] was ≤ 1 µM and the IC50 [3] was ≤ 0.1 µM. The IC50 [4, 5] was ≤ 1 µM.

`Cc1cc(Nc2cc(N(C)CCN(C)C)nc(-c3cc(F)ccc3F)n2)n[nH]1` [Example 183, 2-(2,5-difluorophenyl)-N^4-(2-(dimethylamino)ethyl)-N^4-methyl-N^6-(5-methyl-1H-pyrazol-3-yl)pyrimidine-4,6-diamine] was tested, and the IC50 [1] was 1 to 10 µM, the IC50 ([2]; 40 minutes at room temperature) was ≤ 0.1 µM and the IC50 [3] was ≤ 0.1 µM. For the same compound, the IC50 [4, 5] was ≤ 1 µM.

For `Cc1cc(Nc2cc(N(C)CCN(C)C)nc(-c3ccccc3Cl)n2)n[nH]1` [Compound 50, 2-(2-chlorophenyl)-N4-(2-(dimethylamino)ethyl)-N4-methyl-N6-(5-methyl-1H-pyrazol-3-yl)pyrimidine-4,6-diamine], the GI50 [1] was ≤ 1 µM, the IC50 [1] was 1 to 10 µM and the IC50 ([2]; 40 minutes at room temperature) was ≤ 0.1 µM. For the same compound, the IC50 [3] was ≤ 0.1 µM, the IC50 ([4]; 40 minutes at room temperature) was ≤ 0.1 µM and the IC50 [4, 5] was ≤ 1 µM.

In the case of `Cc1cc(Nc2cc(N(C)CCN(C)C)nc(-c3cccc(C)c3C)n2)n[nH]1` [Example 182, N^4-(2-(dimethylamino)ethyl)-2-(2,3-dimethylphenyl)-N^4-methyl-N^6-(5-methyl-1H-pyrazol-3-yl)pyrimidine-4,6-diamine], the IC50 [1] is reported as 1 to 10 µM, the IC50 [2, 5] is reported as ≤ 1 µM and the IC50 [3] is reported as ≤ 0.1 µM. For the same compound, the IC50 [4, 5] was ≤ 1 µM.

In the case of `Cc1cc(Nc2cc(N(C)CCN(C)C)nc(-c3ccccc3C(F)(F)F)n2)n[nH]1` [Compound 114, N^4-(2-(dimethylamino)ethyl)-N^4-methyl-N^6-(5-methyl-1H-pyrazol-3-yl)-2-(2-(trifluoromethyl)phenyl)pyrimidine-4,6-diamine], the IC50 [1] is reported as 1 to 10 µM, the IC50 ([2]; 40 minutes at room temperature) is reported as ≤ 0.1 µM and the IC50 [3] is reported as ≤ 0.1 µM. The IC50 [4, 5] was ≤ 1 µM.

With `COc1ccccc1-c1nc(Nc2cc(C)[nH]n2)cc(N2CCN(C)CC2)n1` [Compound 43, 2-(2-methoxyphenyl)-N-(5-methyl-1H-pyrazol-3-yl)-6-(4-methylpiperazin-1-yl)pyrimidin-4-amine] the IC50 [1] was 1 to 10 µM, the IC50 [2, 5] was ≤ 1 µM and the IC50 [3] was ≤ 0.1 µM. The IC50 [4, 5] was ≤ 1 µM.
